{"source": "patent US11844801B2", "about": "“Oral compositions of MK2 pathway inhibitor for treatment of immune conditions” (priority 2020, dated 2023)", "key": {"[1]": {"experiment": "13-week oral administration non-clinical safety study, mini-pig", "assay_type": "in vivo", "conditions": "for Cmax / AUC(0-t): 60 mg/kg/day oral; for AUC(0-t): read-out: AUC0-24", "method": "Study Design. […] Rats were administered 0 (vehicle), 3, 10 and 30 mg/kg/day, and Mini-pigs were administered 0 (vehicle) 10, 30 and 60 mg/kg/day"}, "TNF-α [2]": {"tested_on": "TNF-α", "experiment": "Porcine whole blood LPS stimulated TNF-α assay", "assay_type": "cell-based", "conditions": "Sus scrofa, Pig Whole Blood, 10 µg/mL, 4 hr", "method": "Porcine LPS stimulated TNF-α Assay—Porcine whole blood was collected into heparinized vacutainers then transferred into conical tubes and shipped overnight on wet ice. Porcine whole blood was aliquoted (160 μL/well) into round bottom 96 well tissue culture plates. Compounds were serially diluted in 100% DMSO (Sigma-Aldrich, D2650) followed by a 100× dilution into RPMI/10% FBS (Gibco, 11875/26140). The diluted compounds were then added to each plate in duplicate 20 μL aliquots for final concentrations ranging from 10 μM to 1 pM. DMSO final concentration was 0.1%. After a one-hour incubation at 37° C. with 5% CO2, 20 μL of LPS (Sigma-Aldrich, L2630), in RPMI/10% FBS (Gibco, 11875/26140) was added for a final concentration of 10 μg/mL to each well except for the no stimulus wells. After four hours of incubation with LPS, plasma was harvested by centrifugation at 1,800×g for five minutes. The plasmas were assayed for TNF-α levels using a porcine specific TNF-α Quantikine ELISA kit (R&D, PTA00) according to the kit protocol."}, "[3]": {"tested_on": "p-HSP27, TNF-α, IL-1β, IL-6 and IL-8", "experiment": "Ex vivo LPS-stimulated p-HSP27 and cytokines in dosed healthy subjects, summary statements over several analytes", "parameters": "species or system human", "conditions": "SAD and MAD cohorts", "method": "Blood samples of 10 mL were collected for PD analysis. For the SAD cohorts, blood was collected before dosing and 1, 12, and 24 hours after dosing. For the MAD cohorts, on day 1 blood was collected before the morning dose and 4 and 12 hours after the morning dose (prior to the evening dose); on day 7, blood was collected before the morning dose and 4 and 12 hours after the morning dose. […] Additional details of the assays for analyzing p-HSP27 and cytokines are included in the Supplementary Information. Pharmacodynamics. PD data analysis was conducted using Microsoft Excel 2010 (Microsoft, Redmond, WA), Meso Scale Discovery Workbench® analysis software (Rockville, MD), and Phoenix WinNonlin, version 8.2."}, "TNF-α [4]": {"tested_on": "TNF-α", "experiment": "LPS stimulated TNF-α production in human whole blood", "assay_type": "cell-based", "method": "Compounds were serially diluted in 100% DMSO (Sigma-Aldrich, D2650) followed by a 50× dilution into DMEM/10% FBS (Gibco, 11965/26140). Vehicle consisted of DMSO at a final assay concentration of 0.1%. Pin tools (V&P Scientific, Inc., VP246) were placed in the wells and the plate was placed at 37° C. with 5% CO2, with gently shaking for five minutes, then pin tools were removed and saved. […] Pin tools were placed in the wells in the same orientation as the previous step and gently shook for five minutes at 37° C. with 5% CO2, then removed. […] The plasma was harvested and assayed for TNF-α, IL-1β, and IL-6 using Meso Scale Discovery Technology V-plex human cytokine kits according to the kit protocol. The kit plates were read using an MSD Sector S 6000 instrument. Calculations to establish cytokine calibration curves and to determine analyte concentrations in the samples were carried out using the MSD DISCOVERY WORKBENCH® analysis software."}, "IL-8": {"tested_on": "IL-8", "experiment": "IL-1β stimulated IL-8 production in human whole blood", "assay_type": "cell-based", "method": "Compounds were serially diluted in 100% DMSO (Sigma-Aldrich, D2650) followed by a 10× dilution into RPMI (Gibco, 11875). After the one-hour incubation with the compounds or vehicle, 2 μL of IL-1β (R&D, 201-LB-010) in RPMI (Gibco, 11875) was added for a final concentration of 0.5 μg/mL to each well except for the no stimulus wells. After six hours of incubation with IL-1β, plasma was harvested and assayed for TNF-α, IL-6 and IL-8 using Meso Scale Discovery Technology V-plex human cytokine kits according to the kit protocol."}, "[5]": {"tested_on": "regulatory T cells (CD45+ CD3+ CD4+ Foxp3+)", "experiment": "Murine collagen-induced arthritis model, T regulatory cells in popliteal lymph nodes", "assay_type": "in vivo, mouse", "conditions": "1000 ppm chow from day 18, murine CIA model", "method": "In this model DBA/1 mice (12/group) were immunized with bovine collagen/CFA to induce arthritis. […] At day 21, mice were boosted with bovine collagen/CFA, and at day 35 the study was terminated. Popliteal lymph nodes were dissected from mice, cleaned of any trace fat, mechanically dissociated and filtered through 70 micron cell strainers. Live lymphocytes were counted using a Moxi GO II cell counter (Orflo). One million lymphocytes were plated, treated with Fc block, and stained with antibodies targeting surface receptors (including CD45, CD3, CD4) along with a fixable live/dead dye. Cells were fixed/permeabilized (eBioscience Transcription Factor Staining kit) and stained with anti-Foxp3 antibody. The cells were collected via flow cytometry analysis on an Attune NxT instrument. T-regulatory cells were gated as lymphocyte-sized, live, CD45+ CD3+ CD4+ Foxp3+ cells."}, "[6]": {"conditions": "female, minipig, in vivo, study day 90, females"}, "[7]": {"conditions": "male, minipig, in vivo, study day 90, males"}}, "note": "Read-outs that look alike come from different tables or passages of the source.", "data": [{"compound": "Cc1cnc(-c2ccnc(C(C)(C)O)n2)cc1-n1c(C)cc(OCc2ncc(F)cc2F)c(Cl)c1=O", "note": "(single isomer, unassigned) [ATI-450, 3-chloro-4-((3,5-difluoropyridin-2-yl)methoxy)-2′-(2-(2-hydroxypropan-2-yl)pyrimidin-4-yl)-5′,6-dimethyl-2H-[1,4′-bipyridin]-2-one]", "values": [{"measurement": "mortality", "setting": "[1]; 13-week oral, up to 60 mg/kg/day", "result": "No study drug-related mortality was observed"}, {"measurement": "Cmax", "setting": "[1]; [6]", "result": 2360, "unit": "ng/mL"}, {"measurement": "AUC(0-t)", "setting": "[1]; [6]", "result": 22600, "unit": "ng·h/mL"}, {"measurement": "Cmax", "setting": "[1]; [7]", "result": 1670, "unit": "ng/mL"}, {"measurement": "AUC(0-t)", "setting": "[1]; [7]", "result": 14400, "unit": "ng·h/mL"}, {"measurement": "non-adverse findings, haematology", "setting": "[1]; males at ≥10 mg/kg/day and females at 60 mg/kg/day", "result": "Slightly increased neutrophil, lymphocyte and platelet counts"}, {"measurement": "NOAEL at 13 weeks", "setting": "[1]; minipig, in vivo, 13-week oral, read-out: no-observed adverse effect level (NOAEL)", "result": 60, "unit": "mg/kg/day"}, {"measurement": "IC50", "setting": "TNF-α [2]", "result": 7.4, "unit": "nM"}, {"measurement": "modulation of p-HSP27 and inhibition of production of TNF-α, IL-1β, IL-6, and IL-8", "setting": "[3]", "result": "concentration-dependent and dose-dependent modulation"}, {"measurement": "IC50", "setting": "TNF-α [4]; Human Whole Blood, LPS, 100 ng/mL, 4 or 24 hr, read-out: IC50, TNF-α", "result": "29 ± 9", "unit": "nM"}, {"measurement": "IC50", "setting": "TNF-α [4]; human whole blood, LPS 100 ng/mL, read-out: IC50, LPS-stimulated TNF-α", "result": "10 to 100", "unit": "nM"}, {"measurement": "IC80", "setting": "IL-8", "result": "0.04 ± 0.012", "unit": "µg/mL"}, {"measurement": "number of regulatory T cells", "setting": "[5]", "result": "significantly increased the number of regulatory T cells"}]}]}
